Data taken from patent publication US10226482B2, “Copolymer and method for treatment of bacterial infection” (RECCE LIMITED, priority 2014, dated 2019).
Like-named read-outs stand apart in the source and are kept apart here.

What was measured:
E. coli = assay type: cell-based
Procedure: (§1) […] The inoculated test solutions, pH 6.5 to 7.0 were then incubated at 37° C. for sufficient time-periods such that approximately 10^2-10^3 cfu/mL (or 99-99.9% of organisms) killed was achieved.
(§2) A 1 mL aliquot was removed from each respective solution and mixed for one minute with a 1 mL aliquot of Trypticase Soy Broth, then 8 mL of sterile water was added and mixed. Aliquots (1 mL) were then removed from each solution and lawn-inoculated by flooding onto Horse Blood Agar plates for 24-48 hours incubation at 37° C. Visual counts of bacterial growth on the plates were performed.
(§3) Successive generations of E. coli, S. aureus or P. aeruginosa respectively were cultivated via their selection through repeated exposure to a copolymer or Amoxicillin; Organisms surviving treatment were harvested for another cycle of treatment—this process being repeated up to 25 times.

S. aureus = assay type: cell-based
Procedure: as §1, §2, §3

P. aeruginosa = assay type: cell-based; details: with broth
Procedure: Three test organisms—E. coli, S. aureus and P. aeruginosa—were respectively inoculated to achieve an approximate concentration 10^6 cfu/mL in the test solutions; the test solutions each comprised 19 g sterile distilled water, 1 mL trypticase soy broth and copolymer (Example 1; 383 mg; 5.4% w/w on acrolein added) or Comparative Example 1; 303 mg; 6.7% w/w solution on acrolein added). The inoculated test solutions, pH 6.5 to 7.0 were then incubated at 37° C. for sufficient time-periods such that approximately 10^2-10^3 cfu/mL (or 99-99.9% of organisms) killed was achieved.
as §2, §3

MRSA (S. aureus USA300) = assay: Example 9: curative treatment by tail injection of infected mice; assay type: in vivo, BALB/c mice; details: 1 to 7 scale (1 alert and healthy); tail injection 24 hours after infection; Example 1 132 mg/Kg, Comparative Example 1 167 mg/Kg, Oxacillin 500 mg/Kg
Procedure: All experiments were prior-audited, and then supervised to comply with international standards to ensure humane treatment of the animals. All experiments were performed in independent laboratories. In particular, all experiments in Examples 6, 7 and 8 were done in USA within pre-designed protocols specifically to research sepsis and bacteremia; protocols were “blinded” of the identity of test-solutions, to both the supervisor and assistants. All infections were in 100 μL, designed to result in approximately 10^7 cfu/mL infection of mouse-blood; mice were type BALB/c—ten per group in each experiment. Mice were assessed by either sacrifice followed by cfu/g count of bacteria within organ(s), or within a 1 to 7 scale of Health Score, including (1; alert and healthy) to (5; sick and very ruffled coat; euthanized) to (7; deceased). The protocols are tabulated, and follow.
Four groups of each 10 mice were infected with S. aureus superbug (S. aureus USA300), and 24 hours afterwards each group treated curatively with respectively: The copolymer of Example 1 (Ex 1) MW 500 at 132 mg/Kg of mouse; copolymer MW 2500 Comparative Example 1 (CE 1) at 167 mg/Kg of mouse; positive control Oxacillin, 500 mg/Kg and negative control saline. FIG. 5 is a chart showing the number of mice culled due to morbidity or mortality.

[1] = 0.35% w/w solution of Amoxicillin

For `CC1(C)S[C@@H]2[C@H](NC(=O)[C@H](N)c3ccc(O)cc3)C(=O)N2[C@H]1C(=O)O` [Amoxicillin], the “generation after which bacterial resistance resulted” value (E. coli; [1]) was “second”, the “Number of generations of microbes to resistance” value (“Number” for short) (E. coli; with broth) was 8 and the “Number” value (E. coli; without broth) was 2. For the same molecule, the “generation after which bacterial resistance resulted” value (S. aureus; [1]) was “eighth”, the “Number” value (S. aureus; with broth) was 10 and the “Number” value (S. aureus; without broth) was 8. The “Number” value (P. aeruginosa) was 6.
With `Cc1onc(-c2ccccc2)c1C(=O)N[C@@H]1C(=O)N2[C@@H]1SC(C)(C)[C@@H]2C(=O)O` [Oxacillin] the “Health Score of surviving mice” value (MRSA (S. aureus USA300)) was 2.5.
